Tests used:
poly A–poly U (AU-RNA) = test: Fluorimetric titration with AU-RNA; type: binding
Description: Materials. Polynucleotides were purchased as noted: poly A–poly U, calf thymus ctDNA, poly(dAdT)2 and poly(dGdC)2 (Sigma-Aldrich, St. Louis, MI, USA). Polynucleotides were dissolved in Na-cacodylate buffer, I = 0.05 mol dm^−3, pH = 7.0. The calf thymus ctDNA was additionally sonicated and filtered through a […]. Polynucleotide concentration was determined spectroscopically as the concentration of phosphates. Spectrophotometric titrations were performed at pH = 7.0 (I = 0.05 mol dm^−3, sodium cacodylate buffer) by adding aliquots of polynucleotide solution into the solution of the studied compound for fluorimetric experiments and CD experiments were done by adding aliquots of the compound stock solution into the solution of a polynucleotide. In fluorimetric experiments, an excitation wavelength of λexc = 425, 431, 423, 427, 406 and 407 nm, respectively, was used to avoid the inner filter effect caused due to increasing absorbance of the polynucleotide. Emission was collected in the range λem = 400–700 nm. Values for Ka obtained by processing titration data using the Scatchard equation [27], all have satisfactory correlation coefficients (≥0.98). Furthermore, linear changes were evident with increasing DNA or RNA concentration in most titrations. The exceptions to this were titrations of cyanine 3 with GC-DNA and titrations of dye 5 with ds-DNA and ds-RNA where sufficient data points in the non-linear part of the curve allowed estimation of binding affinity (Ka values were of the order 10^5 mol^−1 dm^−3; Figures S16, S22 and S23 in SI). Titration data were collected at a high excess of polynucleotide binding sites (r[1–6]/[nucleotide phosphate] < 0.1; see Figures S9–S26 in SI) where each molecule can bind to a separate binding site. Binding affinities of dye-DNA/RNA complexes were calculated by non-linear fitting using the Scatchard equation [27, 33]. The fluorescence changes of dye 5 in the titration with AT-DNA were too small to obtain an accurate binding constant (Figure S21 in SI).

[1] = target: Tel22 (5′-AGGG(TTAGGG)3–3′) G-quadruplex; test: Fluorimetric titration with Tel22 in sodium cacodylate buffer (Na+ solution); type: binding, human
Description: Materials. Polynucleotides were purchased as noted: poly A–poly U, calf thymus ctDNA, poly(dAdT)2 and poly(dGdC)2 (Sigma-Aldrich, St. Louis, MI, USA). Polynucleotides were dissolved in Na-cacodylate buffer, I = 0.05 mol dm^−3, pH = 7.0. The calf thymus ctDNA was additionally sonicated and filtered through a […]. Polynucleotide concentration was determined spectroscopically as the concentration of phosphates. Spectrophotometric titrations were performed at pH = 7.0 (I = 0.05 mol dm^−3, sodium cacodylate buffer) by adding aliquots of polynucleotide solution into the solution of the studied compound for fluorimetric experiments and CD experiments were done by adding aliquots of the compound stock solution into the solution of a polynucleotide. In fluorimetric experiments, an excitation wavelength of λexc = 425, 431, 423, 427, 406 and 407 nm, respectively, was used to avoid the inner filter effect caused due to increasing absorbance of the polynucleotide. Emission was collected in the range λem = 400–700 nm. Values for Ka obtained by processing titration data using the Scatchard equation [27], all have satisfactory correlation coefficients (≥0.98).
Thermal melting curves for DNA, RNA and their complexes with studied compounds were determined as previously described by following the absorption change at 260 nm as a function of temperature. The absorbance of the ligands was subtracted from every curve and the absorbance scale was normalized. Tm values are the midpoints of the transition curves determined from the maximum of the first derivative and checked graphically by the tangent method. The ∆Tm values were calculated by subtracting Tm of the free nucleic acid from Tm of the complex. Every ∆Tm value here reported was the average of two measurements. The error in ∆Tm is ±0.5 °C. 5′-AGGG(TTAGGG)3–3′(Tel22) was obtained from IDT (Integrated DNA Technologies, Coralville, IA, USA). Tel22 was dissolved in 0.1 M either in sodium cacodylate or potassium phosphate buffer. The starting Tel22 oligonucleotide solution was first heated up to 95 °C for 10 min, then slowly cooled to 10 °C at the cooling rate of 1 °C/min to allow DNA oligonucleotide to adopt a G-quadruplex structure. The G-quadruplex structure was confirmed by thermal melting and CD spectra. The concentration of G quadruplex was expressed in terms of oligonucleotide structure. In fluorimetric titrations, aliquots of Tel 22 solution were added to the solution of ligands (c ~ 2 × 10^−7 M, in SI).
Binding constants (log Ka) and stoichiometry of complexes were calculated from the fluorimetric data using non-linear least-square program SPECFIT [46], in the concentration range that corresponded to 20–80% complex formed.

[2] = Tel22, sodium cacodylate buffer, pH = 7.0, I = 0.1 mol dm^−3, SPECFIT fit of fluorescence titration

Compound	log Ka (poly A–poly U (AU-RNA); AU-RNA)	Ka (order of magnitude) (poly A–poly U (AU-RNA); ds-RNA (AU-RNA), sodium cacodylate buffer, pH 7.0, I = 0.05 mol dm^−3, Scatchard equation)	K (fit parameter of titration curve) (poly A–poly U (AU-RNA); poly A – poly U, pH=7.0, sodium cacodylate buffer, I = 0.05 mol dm-3)	logKa1 (L + G ⇆ LG) [1, 2]	logKa2 (LG + G ⇆ LG2) [1, 2]	Selectivity for G-quadruplex over duplex DNA ([1]; binding affinities Tel22 vs duplex DNA, in both the Na+ and K+ solutions)
C[n+]1c(/C=C2\Sc3ccccc3N2CCCS)[se]c2ccccc21 [Compound 5, 2-((3-(3-mercaptopropyl)benzo[d]thiazol-2(3H)-ylidene)methyl)-3-methylbenzo[d][1,3]selenazol-3-ium methosulphate]	5	~10^5 mol^−1 dm^−3	133756.34591 ±30379564.80418	–	–	–
CN1/C(=C/c2[se]c3ccccc3[n+]2C)Sc2ccccc21 [Compound 3, 3-methyl-2-((3-methylbenzo[d]thiazol-2(3H)-ylidene)methyl)benzo[d][1,3]selenazol-3-ium methosulphate]	–	–	–	7.26 ± 0.41	5.93 ± 0.47	100 fold

Source: article PMC9856044 (Biomolecules, 2023)
